Measured values: ChEMBL document CHEMBL1777760, “Inhibition studies with anions and small molecules of two novel β-carbonic anhydrases from the bacterial pathogen Salmonella enterica serovar Typhimurium” (Bioorg Med Chem Lett, 2011)

Target: Carbonic anhydrase 1 (Homo sapiens, UniProt P00915)
Sequence (P00915 whole entry): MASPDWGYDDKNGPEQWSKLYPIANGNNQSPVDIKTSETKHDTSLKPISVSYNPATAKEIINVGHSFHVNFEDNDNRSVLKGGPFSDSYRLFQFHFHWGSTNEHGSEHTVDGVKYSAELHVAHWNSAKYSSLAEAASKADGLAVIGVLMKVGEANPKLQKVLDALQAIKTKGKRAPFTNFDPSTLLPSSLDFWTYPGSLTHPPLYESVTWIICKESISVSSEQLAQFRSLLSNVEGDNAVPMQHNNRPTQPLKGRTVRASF

Structure (SMILES) | Ki [µM]
NS(=O)(=O)O [SODIUM SULFIMIDATE] | 310
CCN(CC)C(=S)S [DITIOCARB SODIUM] | 790
F[B-](F)(F)F.[Na+] [SODIUM TETRAFLUOROBORATE] | > 200000
